Laboratory results reported in patent US20240279223A1, “5-OXO-PYRIDO[2,3-D]PYRIDAZIN-6(5H)-YL ACETAMIDES” (JANSSEN PHARMACEUTICA NV, priority 2021, published 2024).

How the values were obtained:
[1] = test system: TNF; assay: PBMC assay: TNF cytokine levels after LPS stimulation; type: cell-based; details: human PBMCs, 30 min preincubation, 100 ng/ml LPS for 6 hrs, supernatant, MSD technology
Description: (§1) Peripheral venous blood was collected from healthy individuals and human peripheral blood mononuclear cells (PBMCs) were isolated from blood by Ficoll-Histopaque (Sigma-Aldrich, A0561) density gradient centrifugation. After isolation, PBMCs were stored in liquid nitrogen for later use. Upon thawing, PBMC cell viability was determined in growth medium (RPMI media supplemented with 10% fetal bovine serum, 1% Pen-Strep and 1% L-glutamine). Compounds were spotted in a 1:3 serial dilution in DMSO and diluted to the final concentration in 30 μl medium in 96 well plates (Falcon, 353072). PBMCs were added at a density of 7.5×10^4 cells per well and incubated for 30 min in a 5% CO2 incubator at 37° C. LPS stimulation was performed by addition of 100 ng/ml LPS (final concentration, Invivogen, tirl-smlps) for 6 hrs followed by collection of cellular supernatant and the analysis of IL-1β (μM) and TNF cytokines levels (μM) via MSD technology according to manufacturers' guidelines (MSD, K 151A0H).
(§2) The IC50 values (for IL-1β) and EC50 values (TNF) were obtained on compounds of the invention/examples, and are depicted in the following table: […]

[2] = test system: IL-1β; assay: PBMC assay: IL-1β release after LPS stimulation; type: cell-based; details: human PBMCs, 30 min preincubation, 100 ng/ml LPS for 6 hrs, supernatant, MSD technology
Description: as §1, §2

EC50 ([1]; Homo sapiens, PBMC) [µM]	IC50 ([2]; Homo sapiens, PBMC) [µM]	EC50 [1] [µM]	IC50 [2] [µM]	SMILES
10.6	0.52			CCc1nn(CC(=O)N[C@H]2C[C@@](C)(O)C2)c(=O)c2ccc(C(C)C)nc12 [Compound 1]
> 20	0.78			CC(C)c1nn(CC(=O)NC2CCOCC2)c(=O)c2ccc(C(F)(F)F)nc12 [Compound 12]
> 20	0.17			CC(C)c1nn(CC(=O)Nc2ccc3cn[nH]c3c2)c(=O)c2ccc(C(F)(F)F)nc12 [Compound 26, N-(1H-indazol-6-yl)-2-(8-isopropyl-5-oxo-2-(trifluoromethyl)pyrido[2,3-d]pyridazin-6(5H)-yl)acetamide]
17	0.12			CC(C)c1nn(CC(=O)Nc2ccc3nncn3c2)c(=O)c2ccc(C(C)(F)F)nc12 [Compound 8]
> 20	0.33			CC(C)c1nn(CC(=O)Nc2ccc(=O)n(C)c2)c(=O)c2ccc(C(F)(F)F)nc12 [Compound 16]
> 20	0.05			CC(C)c1nn(CC(=O)N[C@H]2C[C@@](C)(O)C2)c(=O)c2ccc(C(F)(F)F)nc12 [Compound 14]
> 20	6.77			CCc1nn(CC(=O)Nc2ccc3nncn3c2)c(=O)c2ccc(OC)nc12 [Compound 7]
		> 20	0.34	CN(C)c1nn(CC(=O)Nc2ccc3nncn3n2)c(=O)c2ccc(C(F)(F)F)nc12 [Compound 23]
12.9	0.32			CCc1nn(CC(=O)Nc2ccc3nncn3c2)c(=O)c2ccc(C3CC3)nc12 [Compound 5]
> 20	1.49			CCc1nn(CC(=O)Nc2ccncn2)c(=O)c2ccc(C(C)C)nc12 [Compound 2]
> 20	4.49			CCc1nn(CC(=O)Nc2ccncn2)c(=O)c2ccc(C3CC3)nc12 [Compound 3]
11.8	0.06			CC(C)c1nn(CC(=O)Nc2cncnc2)c(=O)c2ccc(C(F)(F)F)nc12 [Compound 19]
	0.37			CCc1nn(CC(=O)N[C@H]2C[C@@](C)(O)C2)c(=O)c2ccc(C3CC3)nc12 [Compound 4]
12.6	0.41			CC(C)c1nn(CC(=O)Nc2ccnnc2)c(=O)c2ccc(C(F)(F)F)nc12 [Compound 18]
2.87	0.07			CC(C)c1nn(CC(=O)Nc2ccc3nncn3n2)c(=O)c2ccc(C(C)(F)F)nc12 [Compound 21]
> 20	0.3			CN(C)c1nn(CC(=O)Nc2ccc3nncn3c2)c(=O)c2ccc(C(C)(F)F)nc12 [Compound 10]
16.6	0.48			Cc1cc(NC(=O)Cn2nc(C(C)C)c3nc(C(F)(F)F)ccc3c2=O)ccn1 [Compound 17]
> 20	0.32			CN(C)c1nn(CC(=O)Nc2ccc3nncn3c2)c(=O)c2ccc(C(F)(F)F)nc12 [Compound 9]
> 20	0.39			CC(C)c1nn(CC(=O)Nc2ccc3nccn3c2)c(=O)c2ccc(C(F)(F)F)nc12 [Compound 15]
		5.86	0.15	CN(C)c1nn(CC(=O)Nc2ccc3nncn3n2)c(=O)c2ccc(C(F)(F)F)nc12 [Compound 22]
		> 20	0.75	CN(C)c1nn(CC(=O)Nc2ccc3nncn3n2)c(=O)c2ccc(C(C)(F)F)nc12 [Compound 25]
17.8	0.78			CCc1ccc2c(=O)n(CC(=O)N[C@H]3C[C@@](C)(O)C3)nc(CC)c2n1 [Compound 6]
> 20	0.1			CC(C)c1nn(CC(=O)Nc2ccc3nncn3c2)c(=O)c2ccc(C(F)(F)F)nc12 [Compound 13]
> 20	0.52			CC(C)c1nn(CC(=O)Nc2ccc3cnn(C(=O)OC(C)(C)C)c3c2)c(=O)c2ccc(C(F)(F)F)nc12 [Compound 11, tert-butyl 6-(2-(8-isopropyl-5-oxo-2-(trifluoromethyl)pyrido[2,3-d]pyridazin-6(5H)-yl)acetamido)-1H-indazole-1-carboxylate]
> 20			0.3	CN(C)c1nn(CC(=O)Nc2ccc3nncn3n2)c(=O)c2ccc(C(C)(F)F)nc12 [Compound 24]
> 20	2.93			CC(C)c1nn(CC(=O)Nc2ccc3nncn3n2)c(=O)c2ccc(C(F)(F)F)nc12 [Compound 20, N-([1,2,4]triazolo[4,3-b]pyridazin-6-yl)-2-(8-isopropyl-5-oxo-2-(trifluoromethyl)pyrido[2,3-d]pyridazin-6(5H)-yl)acetamide]
